What was measured:
[1] = AUC in Sprague-Dawley rat at 10 mg/kg, po measured after 24 to 48 hrs by LC-MS/MS analysis; assay type: ADME, organism-based; settings: in vivo, time 24-48 hrs
[2] = Metabolic stability in cynomolgus monkey hepatocytes assessed as intrinsic clearance measured per million cells incubated upto 120 mins by LC-MS/MS analysis; assay type: ADME, cell-based, Macaca fascicularis, Hepatocyte; settings: read-out: CLH
[3] = Mutagenicity in Salmonella typhimurium TA7002 in presence or absence of S9 fraction pretreated for 90 mins measured after 48 hrs in dark by AMES test; assay type: toxicity; settings: salmonella enterica subsp. enterica serovar typhimurium, s9, 49.5 h; time 2970 min
[4] = Cmax in overnight fasted Beagle dog at 2.37 mg/kg, po measured upto 24 hrs by LC-MS/MS analysis; assay type: ADME, organism-based, Canis lupus familiaris; settings: in vivo
[5] = Clearance in Sprague-Dawley rat assessed as liver blood flow at 2.5 mg/kg, iv measured after 24 hrs by LC-MS/MS analysis; assay type: ADME, organism-based; settings: in vivo
mouse P-gp = assay: Apparent permeability across apical to basolateral side in pig LLC-PK1 cells transfected with mouse P-gp at 1 uM measured upto 120 mins; assay type: ADME, cell-based, Sus scrofa
[6] = Clearance in 8 hrs fasted cynomolgus monkey assessed as liver blood flow at 1 mg/kg, iv measured upto 24 hrs by LC-MS/MS analysis; assay type: ADME, organism-based, Macaca fascicularis; settings: in vivo
[7] = Cmax in CD-1 mouse at 10 mg/kg, po measured upto 24 hrs by LC-MS/MS analysis; assay type: ADME, organism-based; settings: in vivo
[8] = Volume of distribution at steady state in Sprague-Dawley rat at 2.5 mg/kg, iv measured after 24 hrs by LC-MS/MS analysis; assay type: ADME, organism-based; settings: in vivo, read-out: Vdss
Cytochrome P450 3A4 = Cytochrome P450 3A4 (Homo sapiens, UniProt P08684); assay: Inhibition of human CYP3A4 preincubated for 5 mins followed by NADPH addition measured after 5 to 30 mins by LC-MS analysis; assay type: ADME; settings: time 10-35 min
[9] = Clearance in CD-1 mouse assessed as liver blood flow at 2.5 mg/kg, iv measured upto 24 hrs by LC-MS/MS analysis; assay type: ADME, organism-based; settings: in vivo
[10] = Clearance in overnight fasted Beagle dog at 0.51 mg/kg, iv measured upto 24 hrs by LC-MS/MS analysis; assay type: ADME, organism-based, Canis lupus familiaris; settings: in vivo
[11] = Metabolic stability in dog hepatocytes assessed as intrinsic clearance measured per million cells incubated upto 120 mins by LC-MS/MS analysis; assay type: ADME, cell-based, Canis lupus familiaris, Hepatocyte; settings: read-out: CLH
Cytochrome P450 2C19 = Cytochrome P450 2C19 (Homo sapiens, UniProt P33261); assay: Inhibition of human CYP2C19 preincubated for 5 mins followed by NADPH addition measured after 5 to 30 mins by LC-MS analysis; assay type: ADME
[12] = Metabolic stability in human hepatocytes assessed as intrinsic clearance measured per million cells incubated upto 120 mins by LC-MS/MS analysis; assay type: ADME, cell-based, Hepatocyte; settings: read-out: CLH
[13] = Clearance in CD-1 mouse at 2.5 mg/kg, iv measured upto 24 hrs by LC-MS/MS analysis; assay type: ADME, organism-based; settings: in vivo
[14] = Chromatographic hydrophobicity index, log D of the compound at pH 7.4 by LC/MS analysis; assay type: physicochemical; settings: buffer
Cytochrome P450 3A5 = Cytochrome P450 3A5 (Homo sapiens, UniProt P20815); assay: Inhibition of human CYP3A5 preincubated for 5 mins followed by NADPH addition measured after 5 to 30 mins by LC-MS analysis; assay type: ADME; settings: time 10-35 min
dengue virus type 3 = assay: Antiviral activity against DENV-3 H87 infected in african green monkey Vero cells incubated for 24 hrs measured after 3 days post infection by RT-PCR analysis; assay type: functional, organism-based; settings: Dengue virus, H87, Vero; read-out: EC50
[15] = Oral bioavailability in CD-1 mouse at 10 mg/kg measured upto 24 hrs by LC-MS/MS analysis; assay type: ADME, organism-based; settings: in vivo
dengue virus type 4 = assay: Antiviral activity against DENV-4 H241 infected in african green monkey Vero cells incubated for 24 hrs measured after 3 days post infection by RT-PCR analysis; assay type: functional, organism-based
[16] = Elimination half life in 8 hrs fasted cynomolgus monkey assessed as liver blood flow at 1 mg/kg, iv measured upto 24 hrs by LC-MS/MS analysis; assay type: ADME, organism-based, Macaca fascicularis; settings: in vivo, read-out: beta t1/2 (converted)
[17] = Mutagenicity in Salmonella typhimurium TA7001 in presence or absence of S9 fraction pretreated for 90 mins measured after 48 hrs in dark by AMES test; assay type: toxicity; settings: salmonella enterica subsp. enterica serovar typhimurium, s9, 49.5 h; time 2970 min
Cytochrome P450 2D6 = Cytochrome P450 2D6 (Homo sapiens, UniProt P10635); assay: Inhibition of human CYP2D6 preincubated for 5 mins followed by NADPH addition measured after 5 to 30 mins by LC-MS analysis; assay type: ADME
[18] = Cmax in 8 hrs fasted cynomolgus monkey assessed as liver blood flow at 3 mg/kg, po measured upto 24 hrs by LC-MS/MS analysis; assay type: ADME, organism-based, Macaca fascicularis; settings: in vivo
Cytochrome P450 2C9 = Cytochrome P450 2C9 (Homo sapiens, UniProt P11712); assay: Inhibition of human CYP2C9 preincubated for 5 mins followed by NADPH addition measured after 5 to 30 mins by LC-MS analysis; assay type: ADME
[19] = Metabolic stability in rat hepatocytes assessed as intrinsic clearance measured per million cells incubated upto 120 mins by LC-MS/MS analysis; assay type: ADME, cell-based, Hepatocyte; settings: read-out: CLH
[20] = Oral bioavailability in Sprague-Dawley rat at 10 mg/kg measured after 24 to 48 hrs by LC-MS/MS analysis; assay type: ADME, organism-based; settings: in vivo, time 24-48 hrs
[21] = Mutagenicity in Salmonella typhimurium TA7006 in presence or absence of S9 fraction pretreated for 90 mins measured after 48 hrs in dark by AMES test; assay type: toxicity; settings: salmonella enterica subsp. enterica serovar typhimurium, s9, 49.5 h; time 2970 min
[22] = Elimination half life in overnight fasted Beagle dog at 0.51 mg/kg, iv measured upto 24 hrs by LC-MS/MS analysis; assay type: ADME, organism-based, Canis lupus familiaris; settings: in vivo, read-out: beta t1/2 (converted)
[23] = AUC in CD-1 mouse at 10 mg/kg, po measured upto 24 hrs by LC-MS/MS analysis; assay type: ADME, organism-based; settings: in vivo
[24] = Mutagenicity in Salmonella typhimurium TA7005 in presence or absence of S9 fraction pretreated for 90 mins measured after 48 hrs in dark by AMES test; assay type: toxicity; settings: salmonella enterica subsp. enterica serovar typhimurium, s9, 49.5 h; time 2970 min
[25] = Distribution coefficient between 1-Octanol and aqueous phosphate buffer, logD of the compound at pH 7.4 by shake flask method; assay type: physicochemical; settings: 1-octanol/aqueous phosphate buffer

Cytochrome P450 2C9, sequence (P11712 whole entry): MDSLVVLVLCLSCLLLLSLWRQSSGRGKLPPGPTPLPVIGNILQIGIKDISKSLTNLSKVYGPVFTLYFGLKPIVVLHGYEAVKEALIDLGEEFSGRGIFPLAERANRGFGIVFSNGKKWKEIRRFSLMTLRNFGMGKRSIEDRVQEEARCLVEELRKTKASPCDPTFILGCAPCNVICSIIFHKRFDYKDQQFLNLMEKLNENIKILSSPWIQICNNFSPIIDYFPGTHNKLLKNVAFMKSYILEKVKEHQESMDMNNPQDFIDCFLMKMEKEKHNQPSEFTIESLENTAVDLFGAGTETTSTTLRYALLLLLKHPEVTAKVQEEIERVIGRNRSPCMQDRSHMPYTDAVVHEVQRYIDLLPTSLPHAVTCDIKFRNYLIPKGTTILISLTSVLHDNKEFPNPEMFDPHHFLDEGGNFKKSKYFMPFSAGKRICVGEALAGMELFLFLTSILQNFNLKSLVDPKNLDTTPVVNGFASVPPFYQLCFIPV
Cytochrome P450 2D6, sequence (P10635 whole entry): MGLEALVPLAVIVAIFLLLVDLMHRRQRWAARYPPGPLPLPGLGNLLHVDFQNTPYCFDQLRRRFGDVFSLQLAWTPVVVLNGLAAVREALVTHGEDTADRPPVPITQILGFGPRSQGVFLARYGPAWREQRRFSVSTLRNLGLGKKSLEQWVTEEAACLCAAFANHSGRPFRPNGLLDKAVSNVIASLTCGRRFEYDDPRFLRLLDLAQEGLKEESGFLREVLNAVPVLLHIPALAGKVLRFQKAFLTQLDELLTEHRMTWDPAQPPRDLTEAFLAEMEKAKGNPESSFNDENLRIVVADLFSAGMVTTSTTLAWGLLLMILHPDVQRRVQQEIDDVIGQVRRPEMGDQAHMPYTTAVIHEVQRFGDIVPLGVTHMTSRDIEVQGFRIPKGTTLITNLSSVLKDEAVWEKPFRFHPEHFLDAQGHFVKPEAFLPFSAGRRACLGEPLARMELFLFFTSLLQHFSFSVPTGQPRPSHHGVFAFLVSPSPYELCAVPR
Cytochrome P450 3A5, sequence (P20815 whole entry): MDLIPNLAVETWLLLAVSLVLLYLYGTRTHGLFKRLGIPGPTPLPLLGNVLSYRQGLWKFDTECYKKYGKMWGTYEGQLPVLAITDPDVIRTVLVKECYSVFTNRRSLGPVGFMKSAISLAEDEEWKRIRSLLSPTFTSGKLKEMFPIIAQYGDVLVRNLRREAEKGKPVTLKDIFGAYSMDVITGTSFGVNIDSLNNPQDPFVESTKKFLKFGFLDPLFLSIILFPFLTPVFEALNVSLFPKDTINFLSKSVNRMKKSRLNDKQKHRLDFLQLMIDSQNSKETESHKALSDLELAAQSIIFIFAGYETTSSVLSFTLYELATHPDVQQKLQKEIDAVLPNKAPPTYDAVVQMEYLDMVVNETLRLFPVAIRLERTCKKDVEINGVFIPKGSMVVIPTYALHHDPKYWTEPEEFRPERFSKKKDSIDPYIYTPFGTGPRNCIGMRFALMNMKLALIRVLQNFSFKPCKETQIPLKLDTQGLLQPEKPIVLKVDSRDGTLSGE
Cytochrome P450 3A4, sequence (P08684 whole entry): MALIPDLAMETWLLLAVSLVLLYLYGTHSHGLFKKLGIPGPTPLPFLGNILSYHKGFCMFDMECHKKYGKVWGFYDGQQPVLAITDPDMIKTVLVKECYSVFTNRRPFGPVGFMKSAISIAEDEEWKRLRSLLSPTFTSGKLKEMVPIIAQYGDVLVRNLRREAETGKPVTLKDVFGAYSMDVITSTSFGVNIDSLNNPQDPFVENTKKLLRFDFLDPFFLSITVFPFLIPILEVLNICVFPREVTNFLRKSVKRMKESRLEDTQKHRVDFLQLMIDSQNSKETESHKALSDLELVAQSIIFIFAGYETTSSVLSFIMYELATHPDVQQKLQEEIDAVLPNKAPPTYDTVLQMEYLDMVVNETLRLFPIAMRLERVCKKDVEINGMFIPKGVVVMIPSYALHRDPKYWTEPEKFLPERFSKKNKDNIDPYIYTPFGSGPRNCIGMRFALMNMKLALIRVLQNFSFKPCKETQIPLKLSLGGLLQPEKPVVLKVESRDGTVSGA
Cytochrome P450 2C19, sequence (P33261 whole entry): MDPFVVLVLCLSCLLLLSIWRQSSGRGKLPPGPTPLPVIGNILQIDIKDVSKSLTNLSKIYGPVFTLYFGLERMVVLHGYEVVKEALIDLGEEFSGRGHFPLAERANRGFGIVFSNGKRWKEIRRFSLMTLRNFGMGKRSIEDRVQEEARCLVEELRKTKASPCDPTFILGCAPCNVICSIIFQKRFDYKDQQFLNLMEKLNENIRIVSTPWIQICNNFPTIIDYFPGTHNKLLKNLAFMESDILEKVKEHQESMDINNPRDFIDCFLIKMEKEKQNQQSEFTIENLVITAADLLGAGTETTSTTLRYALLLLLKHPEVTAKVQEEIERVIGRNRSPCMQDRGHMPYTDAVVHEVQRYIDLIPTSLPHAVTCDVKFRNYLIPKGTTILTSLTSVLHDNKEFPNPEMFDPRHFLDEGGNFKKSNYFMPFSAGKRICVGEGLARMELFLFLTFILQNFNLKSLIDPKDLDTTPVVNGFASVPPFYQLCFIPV

- AUC [1]: 15400 ng·h/mL
- hepatocyte CLint [2]: < 1.9 µL/min/1e6 cells
- Cmax [4]: 362 ng/mL
- LBF [5]: 7%
- Papp A→B at 2 h, 1 µM (mouse P-gp): 1 ×10⁻⁶ cm/s
- LBF [6]: 5%
- Cmax [7]: 2730 ng/mL
- Vd [8]: 4.6 L/kg
- inhibition (INH) (Cytochrome P450 3A4): Not Active
- LBF [9]: 4%
- clearance [10]: 6.4 mL/min/kg
- hepatocyte CLint [11]: 5.7 µL/min/1e6 cells
- IC50 (Cytochrome P450 2C19): 10.3 µM
- hepatocyte CLint [12]: < 1.9 µL/min/1e6 cells
- clearance [13]: 4.97 mL/min/kg
- Chromatographic log D at pH 7.4 [14]: 3.94
- inhibition (INH) (Cytochrome P450 3A5): Not Active
- EC50 (dengue virus type 3): 0.002 µM
- bioavailability [15]: 108%
- EC50 (dengue virus type 4): 0.011 µM
- half-life [16]: 9.57 h
- IC50 (Cytochrome P450 2D6): > 30 µM
- Cmax [18]: 613 ng/mL
- IC50 (Cytochrome P450 2C9): 3.7 µM
- hepatocyte CLint [19]: < 1.9 µL/min/1e6 cells
- bioavailability [20]: 58%
- half-life [22]: 7.3 h
- AUC at 24 h [23]: 35600 ng·h/mL
- logD [25]: > 4.1
SMILES: COc1cc(N[C@H](C(=O)c2c[nH]c3ccc(OC(F)(F)F)cc23)c2ccc(Cl)cc2OC)cc(S(C)(=O)=O)c1 [MOSNODENVIR]
- Activity [3]: Non-Toxic
- Activity [17]: Non-Toxic
- Activity [21]: Non-Toxic
- Activity [24]: Non-Toxic
